This is an account of results in US20160022675A1, “PROCESSES FOR PREPARING TETRAHYDROISOQUINOLINES” (BRISTOL-MYERS SQUIBB COMPANY, priority 2013, published 2016).

Each structure is given as a SMILES string.

For test [1], the target named is T1, adrenergic α1A receptor (Homo sapiens, UniProt P35348).
T1 sequence (P35348 1-466): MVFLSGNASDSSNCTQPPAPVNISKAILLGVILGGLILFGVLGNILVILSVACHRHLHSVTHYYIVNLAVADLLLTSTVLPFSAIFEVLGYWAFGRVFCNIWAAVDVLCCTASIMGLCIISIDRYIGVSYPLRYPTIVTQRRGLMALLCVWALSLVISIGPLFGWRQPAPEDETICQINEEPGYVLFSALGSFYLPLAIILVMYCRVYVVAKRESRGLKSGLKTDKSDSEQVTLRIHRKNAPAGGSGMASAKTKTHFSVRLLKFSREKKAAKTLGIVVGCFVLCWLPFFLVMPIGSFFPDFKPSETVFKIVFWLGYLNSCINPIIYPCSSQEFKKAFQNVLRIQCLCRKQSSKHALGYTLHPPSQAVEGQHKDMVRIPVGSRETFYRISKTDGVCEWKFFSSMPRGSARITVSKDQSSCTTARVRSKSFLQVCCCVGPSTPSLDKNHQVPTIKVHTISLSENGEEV
Put plainly: Off-target activity at adrenergic α1A receptor. It counts as binding. As to conditions: off-target site.

Test [2] has as its target NET (Homo sapiens, UniProt P23975). Put plainly: Competition binding, membranes from HEK cells overexpressing NET. As to conditions: radioligand at Kd concentration; HEK cell membranes. Further details: expressed in transfected cells; host or cells: HEK cells (membranes). On the procedure: (§1) Competition binding experiments were performed to determine the in vitro binding potencies (IC50 values) of Compound 1-(4S) for SERT, DAT, and NET. Membranes prepared from human embryonic kidney (HEK) cells overexpressing each transporter were employed. Radioligands were used at their respective affinity constant (Kd) concentrations for each transporter to enable direct comparisons of the IC50 values between assays.

The target of test [3] is DAT (Homo sapiens, UniProt Q01959). Put plainly: Competition binding, membranes from HEK cells overexpressing DAT. Further details: expressed in transfected cells; host or cells: HEK cells (membranes). As to conditions: radioligand at Kd concentration; HEK cell membranes. How it is done:
as §1

The target of test [4] is SERT (Homo sapiens, UniProt P31645). Put plainly: Competition binding, membranes from HEK cells overexpressing SERT. On the set-up: expressed in transfected cells; host or cells: HEK cells (membranes). Particulars: radioligand at Kd concentration; HEK cell membranes; read-out: SERT binding IC50. On the procedure: as §1
SERT, sequence (P31645 whole entry): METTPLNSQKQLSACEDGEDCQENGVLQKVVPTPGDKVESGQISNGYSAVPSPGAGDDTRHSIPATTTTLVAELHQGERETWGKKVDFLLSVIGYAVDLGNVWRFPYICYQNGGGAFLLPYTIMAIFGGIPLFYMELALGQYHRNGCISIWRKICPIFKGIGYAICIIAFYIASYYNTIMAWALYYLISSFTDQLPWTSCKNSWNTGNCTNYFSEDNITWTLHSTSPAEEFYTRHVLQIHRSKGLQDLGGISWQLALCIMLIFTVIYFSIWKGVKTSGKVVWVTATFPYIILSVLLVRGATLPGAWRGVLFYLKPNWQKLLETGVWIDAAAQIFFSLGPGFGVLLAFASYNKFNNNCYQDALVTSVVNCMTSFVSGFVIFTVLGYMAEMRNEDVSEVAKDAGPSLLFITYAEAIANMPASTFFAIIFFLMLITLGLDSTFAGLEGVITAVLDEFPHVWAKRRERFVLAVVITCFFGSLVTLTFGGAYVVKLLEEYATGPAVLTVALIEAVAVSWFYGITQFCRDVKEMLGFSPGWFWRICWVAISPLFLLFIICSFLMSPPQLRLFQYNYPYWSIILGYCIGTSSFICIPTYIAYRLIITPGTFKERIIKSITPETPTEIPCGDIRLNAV
Test [5] concerns the target T2, 5-HT1A (Homo sapiens, UniProt P08908).
T2 sequence (P08908 1-422): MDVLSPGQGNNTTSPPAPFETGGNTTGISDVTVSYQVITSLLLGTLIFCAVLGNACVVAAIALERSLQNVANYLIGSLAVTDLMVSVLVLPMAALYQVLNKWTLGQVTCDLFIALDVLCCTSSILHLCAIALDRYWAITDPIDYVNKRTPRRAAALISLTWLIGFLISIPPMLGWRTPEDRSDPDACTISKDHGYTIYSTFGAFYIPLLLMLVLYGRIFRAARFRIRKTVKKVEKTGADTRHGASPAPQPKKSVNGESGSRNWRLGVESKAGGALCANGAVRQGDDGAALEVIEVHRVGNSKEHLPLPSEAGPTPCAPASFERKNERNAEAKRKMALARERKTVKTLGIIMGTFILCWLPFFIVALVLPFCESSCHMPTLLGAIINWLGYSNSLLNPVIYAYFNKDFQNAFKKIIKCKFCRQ
Put plainly: Off-target activity at 5-HT1A. Type of test: binding. As to conditions: off-target site; read-out: 5-HT1A inhibition constant Ki.

In test [6] the target is T3, adrenergic α1D receptor (Homo sapiens, UniProt P25100).
T3 sequence (P25100 1-572): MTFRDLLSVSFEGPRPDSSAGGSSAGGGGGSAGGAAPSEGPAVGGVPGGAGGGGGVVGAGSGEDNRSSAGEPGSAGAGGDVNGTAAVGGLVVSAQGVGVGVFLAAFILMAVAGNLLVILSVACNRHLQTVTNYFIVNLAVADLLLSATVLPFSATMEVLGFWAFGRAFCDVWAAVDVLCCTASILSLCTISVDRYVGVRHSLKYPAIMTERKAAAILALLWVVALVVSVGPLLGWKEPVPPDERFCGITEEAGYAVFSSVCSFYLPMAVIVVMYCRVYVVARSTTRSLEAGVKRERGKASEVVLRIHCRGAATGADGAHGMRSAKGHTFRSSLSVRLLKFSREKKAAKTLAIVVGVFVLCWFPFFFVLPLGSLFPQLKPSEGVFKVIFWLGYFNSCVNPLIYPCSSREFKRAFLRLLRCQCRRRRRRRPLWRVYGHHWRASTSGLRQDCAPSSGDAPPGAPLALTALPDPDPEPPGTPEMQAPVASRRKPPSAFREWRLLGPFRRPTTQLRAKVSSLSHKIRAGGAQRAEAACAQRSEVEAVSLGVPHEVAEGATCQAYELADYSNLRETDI
Put plainly: Off-target activity at adrenergic α1D receptor. Type of test: binding. As to conditions: off-target site.

In test [7] the target is T4, adrenergic α1B receptor (Homo sapiens, UniProt P35368).
T4 sequence (P35368 1-520): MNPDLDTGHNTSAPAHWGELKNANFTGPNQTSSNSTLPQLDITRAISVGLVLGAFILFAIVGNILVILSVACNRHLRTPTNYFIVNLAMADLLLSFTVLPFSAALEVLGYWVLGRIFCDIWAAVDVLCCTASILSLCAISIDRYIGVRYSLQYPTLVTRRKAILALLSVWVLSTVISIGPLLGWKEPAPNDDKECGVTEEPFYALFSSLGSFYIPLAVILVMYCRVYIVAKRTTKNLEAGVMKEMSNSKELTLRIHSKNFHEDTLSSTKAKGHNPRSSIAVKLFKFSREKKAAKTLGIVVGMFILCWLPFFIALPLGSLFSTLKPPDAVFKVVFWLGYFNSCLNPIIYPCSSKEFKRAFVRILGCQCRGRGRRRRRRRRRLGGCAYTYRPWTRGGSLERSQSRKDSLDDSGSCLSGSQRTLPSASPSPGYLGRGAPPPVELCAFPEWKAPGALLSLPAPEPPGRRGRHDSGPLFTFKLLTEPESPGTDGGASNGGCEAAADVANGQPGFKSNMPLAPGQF
Put plainly: Off-target activity at adrenergic α1B receptor. It counts as binding. As to conditions: off-target site.

NET, sequence (P23975 whole entry): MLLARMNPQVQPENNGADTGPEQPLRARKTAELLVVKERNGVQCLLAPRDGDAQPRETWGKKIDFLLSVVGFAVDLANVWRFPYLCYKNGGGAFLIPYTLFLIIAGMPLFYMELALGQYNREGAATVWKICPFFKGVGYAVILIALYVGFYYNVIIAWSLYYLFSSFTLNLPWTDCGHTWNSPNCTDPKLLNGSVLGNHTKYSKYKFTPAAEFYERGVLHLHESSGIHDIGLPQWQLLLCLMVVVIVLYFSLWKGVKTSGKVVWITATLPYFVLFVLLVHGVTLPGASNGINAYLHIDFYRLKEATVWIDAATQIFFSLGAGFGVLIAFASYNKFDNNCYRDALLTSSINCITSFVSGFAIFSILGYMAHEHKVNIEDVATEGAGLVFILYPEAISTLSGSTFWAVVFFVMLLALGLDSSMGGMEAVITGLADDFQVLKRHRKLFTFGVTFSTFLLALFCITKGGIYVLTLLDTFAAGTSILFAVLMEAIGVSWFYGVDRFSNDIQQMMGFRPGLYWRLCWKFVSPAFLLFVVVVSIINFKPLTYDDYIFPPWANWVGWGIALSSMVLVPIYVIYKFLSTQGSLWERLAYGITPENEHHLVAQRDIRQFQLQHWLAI
DAT, sequence (Q01959 whole entry): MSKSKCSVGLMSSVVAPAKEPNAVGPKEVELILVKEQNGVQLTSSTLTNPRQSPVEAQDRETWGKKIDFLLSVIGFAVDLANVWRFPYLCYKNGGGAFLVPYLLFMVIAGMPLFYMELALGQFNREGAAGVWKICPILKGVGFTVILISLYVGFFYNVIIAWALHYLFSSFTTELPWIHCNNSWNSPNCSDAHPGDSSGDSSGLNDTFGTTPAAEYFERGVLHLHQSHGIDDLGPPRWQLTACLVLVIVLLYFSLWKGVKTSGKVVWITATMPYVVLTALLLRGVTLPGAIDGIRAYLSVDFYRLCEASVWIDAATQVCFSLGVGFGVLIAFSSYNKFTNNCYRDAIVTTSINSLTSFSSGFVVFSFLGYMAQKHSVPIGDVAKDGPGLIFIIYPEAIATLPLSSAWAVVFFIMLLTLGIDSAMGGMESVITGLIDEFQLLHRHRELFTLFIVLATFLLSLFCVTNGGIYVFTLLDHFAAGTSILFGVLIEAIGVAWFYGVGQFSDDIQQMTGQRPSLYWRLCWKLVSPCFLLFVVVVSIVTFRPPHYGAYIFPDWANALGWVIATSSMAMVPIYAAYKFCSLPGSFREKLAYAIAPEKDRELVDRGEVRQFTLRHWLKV

Turning to `Nc1ccc(-c2ccc3c(c2)CNC[C@H]3c2ccc3ccccc3c2)nn1` [Compound 31], the inhibitory constant (Ki) in test [1] was 410 nM; in test [5], 99 nM; in test [6] it was 480 nM; in test [7] it was 260 nM. For the same compound, the half-maximal inhibitory concentration (IC50) is 26.7 ± 3 nM in test [2], 6.19 ± 1 nM in test [3] and 0.21 ± 0.04 nM in test [4].
